In patent US5288720A, “Angiotensin II receptor blocking 2,3,6 substituted quinazolinones” (American Cyanamid Company, priority 1993, dated 1994):

Legend:
Angiotensin II Receptor = target: T1, Angiotensin II Receptor (Bos taurus, UniProt P25104); assay: Receptor Binding Assay: Binding of [^125 I](Sar^1,Ile^8)AngII to beef adrenal cortex membranes; settings: 60 min, room temperature
T1 construct: The brownish tissue forming the adrenal cortex is scraped off and finely minced with scissors before homogenization; from tissue; host or cells: beef adrenal cortex, microsomal membranes (100,000×g pellet); fresh glands from a local slaughter house (Maxwell-Cohen)
T1 sequence (P25104 1-359): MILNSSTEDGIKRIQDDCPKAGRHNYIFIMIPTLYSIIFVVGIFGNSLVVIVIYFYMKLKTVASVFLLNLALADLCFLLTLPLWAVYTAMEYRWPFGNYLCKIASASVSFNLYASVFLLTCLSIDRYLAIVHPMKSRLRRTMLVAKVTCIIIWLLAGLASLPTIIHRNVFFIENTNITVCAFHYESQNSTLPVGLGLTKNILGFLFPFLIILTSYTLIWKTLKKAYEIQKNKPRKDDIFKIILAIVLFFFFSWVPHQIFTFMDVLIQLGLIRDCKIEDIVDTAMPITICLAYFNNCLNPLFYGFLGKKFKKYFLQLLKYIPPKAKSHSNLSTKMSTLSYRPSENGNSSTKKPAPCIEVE
Excerpt: Beef adrenals are obtained from a local slaughter house (Maxwell-Cohen). [^125 […]. 2200 Ci/mmole, is purchased from Dupont (NEN®, Boston, Mass.). All unlabeled AngII analogs, Dimethylsulfoxide (DMSO), nucleotides, bovine serum albumin (BSA) are purchased from Sigma Chemical Co., St. Louis, Mo. U.S.A. […] Approximately sixteen (16) to twenty (20) beef adrenal glands are processed as follows: fresh adrenal glands received on crushed ice are cleaned of fatty tissues and the tough membranes encapsulating the glands are removed and discarded. The brownish tissue forming the adrenal cortex is scraped off and finely minced with scissors before homogenization. Care is taken to avoid contamination with medullary tissue during dissection. The scraped cortices are suspended in twenty volumes of an ice-cold buffer medium consisting of 10 mM Tris.HCl (pH 7.4 at 22° C.) and containing 1.0 mM EDTA and 0.2M sucrose. Unless otherwise indicated, all subsequent operations are done at 4° C. […] The homogenate is centrifuged first at low speed (3,000×g) for 10 minutes. […] This P2 pellet is discarded and the liquid phase is carefully decanted off in clean centrifuge tubes and recentrifuged at high speed (100,000×g) for 60 minutes. The translucent final pellet is harvested and combined in a small volume (20-50.0 ml) of 50.0 mM Tris.HCl buffer, pH 7.2. A 100 ul aliquot is withdrawn and the protein content of the preparation is determined by the Lowry's method (Lowry, O. H., Rosebrough, […]. and Randall, R. J., Protein measurement with Folin phenol reagent. J. Biol. Chem., […], 265-275, 1951). The pelleted membrane is reconstituted in 50.0 mM Tris.HCl buffer containing 0.1 mM of phenylmethylsulfonyl fluoride (PMSF) to give approximately a protein concentration of 2.5 mg per ml of tissue suspension. […] Receptor Binding Assay: […] In competition studies, experimental compounds are diluted in dimethylsulfoxide (DMSO) and added in 20 ul to wells before the introduction of tissue membranes. […] Assays are performed in triplicate. The wells are left undisturbed for 60 minutes at room temperature. Following incubation, all wells are harvested at once with a Brandel® Harvester especially designed for a 96 well plate (Brandel® Biomedical Research & Development Labs. Inc., Gaithersburg, Md., U.S.A.). The filter discs are washed with 10×1.0 ml of cold 0.9% NaCl to remove unbound ligand. Presoaking the filter sheet in 0.1% polyethyleneimine in normal saline (PEI/Saline) greatly reduces the radioactivity retained by the filter blanks. This method is routinely used. The filters are removed from the filter grid and counted in a Parkard® Cobra Gamma Counter for 1 minutes. (Packard Instrument Co., Downers Grove, Ill, U.S.A.). The binding data are analyzed by the non-linear interactive "LUNDON-1" program (LUNDON SOFTWARE Inc., Cleveland, Ohio U.S.A.).

[1] = tested on: ANGIOTENSIN II VASOPRESSOR RESPONSE; assay: AII Challenge: blockade of angiotensin II vasopressor response in conscious SHR; type: in vivo, rat (Conscious Male Okamoto-Aoki SHR); settings: SHR n=2, 10 mg/kg i.v.
Excerpt: By administering a compound of this invention to a rat, and then challenging with angiotensin II, a blockage of the vasopressor response is realized.
Conscious Male Okamoto-Aoki SHR, 16-20 weeks old, weighing approximately 330 g are purchased from Charles River Labs (Wilmington, Mass.). Conscious rats are restrained in a supine position with elastic tape. The area at the base of the tail is locally anesthetized by subcutaneous infiltration with 2% procaine. The ventral caudal artery and vein are isolated, and a cannula made of polyethylene (PE) 10-20 tubing (fused together by heat) is passed into the lower abdominal aorta and vena cava, respectively. The cannula is secured, heparinized (1,000 I.U./ml), sealed and the wound is closed. The animals are placed in plastic restraining cages in an upright position. The cannula is attached to a Statham P23Db pressure transducer, and pulsatile blood pressure is recorded to 10-15 minutes with a Gould Brush recorder. (Chan et al., (Drug Development Res., 18:75-94, 1989).
Angiotensin II (human sequence, Sigma Chem. Co., St. Louis, MO) of 0.05 and 0.1 ug/kg i.v. is injected into all rats (predosing response). Then a test compound, vehicle or a known angiotensin II antagonist is administered i.v., i.p. or orally to each set of rats. The two doses of angiotensin II are given to each rat again at 30, 60, 90, 120, 180, 240 and 300 minutes post dosing the compound or vehicle. The vasopressor response of angiotensin II is measured for the increase in systolic blood pressure in mmHg. The percentage of antagonism or blockade of the vasopressor response of angiotensin II by a compound is calculated using the vasopressor response (increase in systolic blood pressure) of angiotensin II of each rat predosing the compound as 100%. A compound is considered active if at 30 mg/kg i.v. it antagonized at least 50% of the response.

[2] = AII 0.05 mcg/kg IV, 30 min post dose
[3] = AII 0.05 mcg/kg IV, 60 min post dose
[4] = AII 0.05 mcg/kg IV, 90 min post dose
[5] = AII 0.05 mcg/kg IV, 120 min post dose
[6] = AII 0.05 mcg/kg IV, 180 min post dose
[7] = AII 0.05 mcg/kg IV, 240 min post dose
[8] = AII 0.05 mcg/kg IV, 300 min post dose
[9] = AII 0.1 mcg/kg IV, 30 min post dose
[10] = AII 0.1 mcg/kg IV, 60 min post dose
[11] = AII 0.1 mcg/kg IV, 90 min post dose
[12] = AII 0.1 mcg/kg IV, 120 min post dose
[13] = AII 0.1 mcg/kg IV, 180 min post dose
[14] = AII 0.1 mcg/kg IV, 240 min post dose
[15] = AII 0.1 mcg/kg IV, 300 min post dose

## CCCCc1nc2ccc(C(C)(O)C3CCCN(C)C3=O)cc2c(=O)n1Cc1ccc(-c2ccccc2-c2nn[nH]n2)cc1 (single isomer, unassigned; isomer 1) [Example 52, 2-Butyl-6-[1-hydroxy(1-methyl-2-oxo-3-piperidinyl)ethyl]-3-[[2'-(1H-tetrazol-5-yl)-[1,1'-biphenyl]-4-yl]methyl]-4(3H)-quinazolinone, isomer 1]
Angiotensin II Receptor
  IC50: 62 nM
[1]; [2]
  % Inhibition of AII vasopressor response: 71%
  Average Change (systolic blood pressure response to AII): 12.5 mmHg
[1]; [3]
  % Inhibition of AII vasopressor response: 94%
  Average Change (systolic blood pressure response to AII): 2.5 mmHg
[1]; [4]
  % Inhibition of AII vasopressor response: 76%
  Average Change (systolic blood pressure response to AII): 10 mmHg
[1]; [5]
  % Inhibition of AII vasopressor response: 59%
  Average Change (systolic blood pressure response to AII): 17.5 mmHg
[1]; [6]
  % Inhibition of AII vasopressor response: 47%
  Average Change (systolic blood pressure response to AII): 22.5 mmHg
[1]; [7]
  % Inhibition of AII vasopressor response: 29%
  Average Change (systolic blood pressure response to AII): 30 mmHg
[1]; [8]
  % Inhibition of AII vasopressor response: 47%
  Average Change (systolic blood pressure response to AII): 22.5 mmHg
[1]; [9]
  % Inhibition of AII vasopressor response: 85%
  Average Change (systolic blood pressure response to AII): 7.5 mmHg
[1]; [10]
  % Inhibition of AII vasopressor response: 90%
  Average Change (systolic blood pressure response to AII): 5 mmHg
[1]; [11]
  % Inhibition of AII vasopressor response: 70%
  Average Change (systolic blood pressure response to AII): 15 mmHg
[1]; [12]
  % Inhibition of AII vasopressor response: 80%
  Average Change (systolic blood pressure response to AII): 10 mmHg
[1]; [13]
  % Inhibition of AII vasopressor response: 55%
  Average Change (systolic blood pressure response to AII): 22.5 mmHg
[1]; [14]
  % Inhibition of AII vasopressor response: 45%
  Average Change (systolic blood pressure response to AII): 27.5 mmHg
[1]; [15]
  % Inhibition of AII vasopressor response: 45%
  Average Change (systolic blood pressure response to AII): 27.5 mmHg

## CCCCc1nc2ccc(C(O)C3CCCO3)cc2c(=O)n1Cc1ccc(-c2ccccc2-c2nn[nH]n2)cc1 (centres unmarked) [Example 28]
Angiotensin II Receptor
  IC50: 130 nM

## CCCCc1nc2ccc(C(O)C3CCCCN(C)C3=O)cc2c(=O)n1Cc1ccc(-c2ccccc2-c2nn[nH]n2)cc1 (single isomer, unassigned; isomer 2) [Example 55, 2-Butyl-6-[(hexahydro-1-methyl-2-oxo-1H-azepin-3-yl)hydroxymethyl]-3-[[2'-(1H-tetrazol-5-yl)[1,1'-biphenyl]-4-yl]methyl-4(3H)quinazolinone isomer 2]
Angiotensin II Receptor
  IC50: 150 nM

## CCCCc1nc2ccc(C(O)C3CCCCN(C)C3=O)cc2c(=O)n1Cc1ccc(-c2ccccc2-c2nn[nH]n2)cc1 (single isomer, unassigned; isomer 1) [Example 54, 2-Butyl-6-[(hexahydro-1-methyl-2-oxo-1H-azepin-3-yl)hydroxymethyl]-3-[[2'-(1H-tetrazol-5-yl)[1,1'biphenyl]-4-yl]methyl-4-(3H)-quinazolinone isomer 1]
Angiotensin II Receptor
  IC50: 430 nM
